From patent US20040009921A1, “Methods and compositions for the treatment of cancer” (Allergan, Inc., priority 2002, published 2004) come the findings set out here.

The subject of test [1] is β-catenin-mediated gene transactivation (TCF/LEF reporter Topflash). The test is described as follows: Topflash reporter gene assay in HEK293 cells and stable lines RBC, CAT. The class given is cell-based, human. As for the experimental part:
Cultured cells were transfected with 100 ng of reporter gene Topflash® together with expression vectors indicated under each graph. […] (A) Data from HEK293 cells co-transfected with wild type or mutant β-catenin (200 ng) and RXRα (20 ng). (B) CAT, a stable cell line that overexpresses β-catenin (left panel). RBC, a stable cell line that overexpresses both RXRα and β-catenin. (C) SW480, a colorectal cancer cell line, was transfected with 100 ng of Topflash®. The amount of RXRα cotransfected was indicated below the X axis. Reporter activity on the Y axis is expressed as either Luciferase Unit or percentage of activity in cells transfected with Topflash® alone.
For transfection of the HEK293 cell line, cells were seeded at a density of 50,000 cells per well in 24-well plates coated with poly-D-Lysine (Becton Dickinson). After 24 hours, the luciferase-based reporter plasmids and expression vectors were cotransfected into cells using Fugene according to the manufacturer's instruction (Roche Applied Science). To monitor the efficiency of transfection, either 15 ng of phRG-TK Renilla or 100 ng of CMX-LacZ DNA were cotransfected. […] Harvested cells were lysed, and luciferase activity was measured as previously described (de Wet, J. R., Wood, K. V., DeLuca, M., Helinski, D. R., Subramani, S. (1987) Mol. Cell. Biol. 7, 725-737). In cells transfected with the LacZ control gene, β-galactosidase activity was measured by standard colorimetric assays. Renilla reniformis […] activity was determined using the Dual-Luciferase Reporter 100 Assay System (Promega Corporation, 2800 Woods Hollow Road, Madison Wis. USA 53711). The experimental reporter gene activity was normalized against either β-galactosidase or Renilla GFP activity. Values represent the mean +/− SEM of quadruplicate determinations.
To investigate whether RXR and its ligands affect β-catenin-mediated gene transactivation, the APC-positive human HEK293 cells were transfected with the reporter gene Topflash®. This reporter gene contains multiple copies of responsive elements for the DNA-binding transcription activators, TCF/LEF, upstream of the basic luciferase reporter gene construct tk-Luc. The tk-Luc portion of he reporter plasmid consists of a minimal gene promoter from HSV tk gene and a coding sequence for luciferase. Transactivation of this reporter by TCF/LEF can be affected by endogenous as well as overexpressed β-catenin, which interacts with TCF/LEF as a co-activator.
(Reporter assays use an easily measured gene product as a stand-in for the process of interest.)

In a further test the test system is β-galactosidase. Kind of test: Western blotting of β-galactosidase control (LacZ) in HEK293 cells. The class given is cell-based. Conditions: HEK293 cotransfected with LacZ, 0.1 μM. In general terms: In western blotting, separated proteins are transferred to a membrane and probed.
The subject of the next test is β-catenin. Kind of test: Western blotting of β-catenin protein in HEK293 cells and stable lines RBC, CAT, RmBC. It is filed as cell-based, human. As for the experimental part:
(§1) (A) Western blotting analysis of HEK293 cells transfected with a combination of expression vectors for LacZ (2 μg), V5-tagged β-catenin(4 μg), and Flag-tagged RXRα (2 μg) as indicated below the gels. […] RXRα protein was measured using an HRP-conjugated mouse monoclonal antibody against the Flag tag. (B) Western blotting analysis of stable cell line RBC that overexpresses both β-catenin and RXRα. […] (C) Western blotting analysis of stable cell line CAT that overexpresses only β-catenin. […] Endogenous and overexpressed β-catenin were detected using a rabbit polyclonal antibody as indicated by “Total” whereas overexpressed β-catenin was analyzed using a mouse monoclonal antibody against the V5 tag. Endogenous and overexpressed RXRα were detected by a rabbit polyclonal antibody against RXRα, whereas overexpressed RXRα was determined by an HRP-conjugated mouse monoclonal antibody against the Flag tag. (D) Western blotting analysis of HEK293 cells transfected with a fixed amount of β-catenin (4 μg) plus an increasing amount of RXRα as indicated at the top. […] (E) Western blotting analysis of HEK293, CV-1, and Hela cells transfected with 2 μg of RXRα and 4 μg of wild type or mutant β-catenin. α. […] (F) Northern blotting analysis of RBC cells using β-catenin as a probe.
FIG. 4 Receptor and ligand specificity in degradation of β-catenin by retinoid receptors. HEK293 cells transfected with expression vectors for β-catenin (4 μg) and RXRs (2 μg) or RARs (2 μg) and treated with ligands at concentrations indicated at the top of each gel. Protein levels were detected by Western blotting as shown in this figure. β-catenin and RARs were detected by HRP-conjugated antibodies against their V5 tag. RXRs were detected by HRP-conjugated antibodies against their Flag tag. […] In this experiment, the amount of expression vectors for RXRα and RARs used in transfection was 1 μg.
HEK293 cells were seeded at a density of […] per dish were seeded into 100-mm dishes and cultured overnight in DMEM containing 10% FBS. Cells were transfected with 1-4 μg of various cDNA or parental expression vectors (8 μg of DNA in total) using Lipofectamine®. Five hours after transfection, cells were fed with fresh culture media DMEM containing 10% charcoal-treated FBS with vehicle DMSO or retinoids prepared in DMSO. After a given time of treatment, cells were harvested and lysed in a buffer containing 1% Nonidet® P-40, 30 mM Tris-HCl (pH7.4), 0.5 mM EDTA (pH 8.0), 150 mM NaCl, 10% glycerol, 1 mM sodium orthovanadate, 40 mM NaF, 0.5 mM phenylmethylsulfonyl fluoride (PMSF) and a cocktail of protease inhibitors (Merck).
Total cell lysates were homogenized by passing through a QIAshredder® (Qiagen) and cleared from insoluble materials by centriftigation at 12,000 g. Protein concentration was determined using a Bradford total protein assay kit (Bio-Rad). Total cell lysates were electrophoresed using a 4-12% SDS-PAGE gradient gel and transferred to either nitrocellulose or PVDF filter membranes. The membranes were blocked with 10% non-fat milk reconstituted from dairy milk powder in phosphate-buffered saline (PBS) containing 0.1% Tween®-20 (PBST). The membranes were incubated with primary antibodies at room temperature for 2 hours or at 4° C. for overnight. After the removal of unbound antibodies, membranes were incubated with horseradish peroxidase-conjugated secondary antibodies for one hour at room temperature and washed five times with PBST.

The test system of a further test is β-catenin mRNA. Kind of test: Northern blotting of β-catenin mRNA in RBC cells. The class given is cell-based, human. Conditions: RBC cells treated overnight (17 hours). The method, then:
as §1

Method for β-galactosidase: (A) Western blotting analysis of HEK293 cells transfected with a combination of expression vectors for LacZ (2 μg), V5-tagged β-catenin(4 μg), and Flag-tagged RXRα (2 μg) as indicated below the gels. […] RXRα protein was measured using an HRP-conjugated mouse monoclonal antibody against the Flag tag. […] Endogenous and overexpressed β-catenin were detected using a rabbit polyclonal antibody as indicated by “Total” whereas overexpressed β-catenin was analyzed using a mouse monoclonal antibody against the V5 tag. Endogenous and overexpressed RXRα were detected by a rabbit polyclonal antibody against RXRα, whereas overexpressed RXRα was determined by an HRP-conjugated mouse monoclonal antibody against the Flag tag. (D) Western blotting analysis of HEK293 cells transfected with a fixed amount of β-catenin (4 μg) plus an increasing amount of RXRα as indicated at the top.
HEK293 cells were seeded at a density of 2×10 per dish were seeded into 100-mm dishes and cultured overnight in DMEM containing 10% FBS. Cells were transfected with 1-4 μg of various cDNA or parental expression vectors (8 μg of DNA in total) using Lipofectamine®. […]
Total cell lysates were homogenized by passing through a QIAshredder® (Qiagen) and cleared from insoluble materials by centriftigation at 12,000 g. Protein concentration was determined using a Bradford total protein assay kit (Bio-Rad). […]

On to `CC(/C=C/[C@@H]1C[C@]1(C)c1ccc2c(c1)C(C)(C)CCC2(C)C)=C\C(=O)O` [AGN 4204], for which, in test [1] (HEK293, endogenous β-catenin, 0.1 μM, 17 hours), the “Topflash reporter activity from endogenous β-catenin” value is listed as “moderately reduced”. Also, the “ΔNβ-catenin mutant activity in transactivating Topflash” value in test [1] (HEK293, ΔNβ-catenin in the presence of RXRα) was “significantly impaired”. Further, the “decrease in reporter activity” value in test [1] (HEK293 cotransfected with β-catenin and RXRα, 0.1 μM, 17 hours) is recorded as 90%; in test [1] (stable line CAT overexpressing only β-catenin, 0.1 μM, 17 hours) it was 30%; in test [1] (stable line RBC expressing β-catenin and RXRα, 0.1 μM, 17 hours), “decrease in the reporter activity was also observed”. Moreover, in the test with β-galactosidase, the “expression of β-galactosidase protein from LacZ control” value is listed as “not significantly affected”. In addition, the β-catenin protein entry was “significantly reduced” in the test with β-catenin (CAT cells transfected with RXRα expression vector, 0.1 μM, 17 hours); “did not cause a significant decrease of β-catenin” in the test with β-catenin (CAT cells, low endogenous RXRα, 0.1 μM, 17 hours); “a proportional decrease in β-catenin” in the test on β-catenin (HEK293, fixed β-catenin plus increasing amounts of RXRα vector, 0.1 μM, 17 hours). For the same compound, the “intracellular β-catenin protein levels” value in the test with β-catenin (HEK293, β-catenin alone overexpressed, 0.1 μM, 6 or 15 hours) is recorded as “no significant effects”. The “degradation of β-catenin” value in the test with β-catenin (HEK293 co-expressing RXRα with RARα) was “RXR-ligand-dependent degradation”; in the test on β-catenin (HEK293 overexpressing RARβ or RARγ), “did not result in degradation of β-catenin”. Further, the “amounts of β-catenin protein” value with β-catenin (HEK293 co-overexpressing β-catenin and RXR, 0.1 μM, 6 or 15 hours) is reported as “a reduction in the amounts of β-catenin protein”. Besides, the “concentration effective in inducing degradation of β-catenin” value in the test on β-catenin (HEK293 transfected with β-catenin and RXRα, 17 hours) is on record as 1 nM. In addition, the “degradation of β-catenin through RXRγ” value in the test on β-catenin (HEK293 transfected with β-catenin and RXRγ) was “able to stimulated the degradation of β-catenin through RXRγ”. The “AGN 4204-induced β-catenin degradation mediated by RXRα deletion mutants” value in the test with β-catenin (HEK293 with β-catenin and RXRα mutants, 0.1 μM, 17 hours) is listed as “significantly reduced”. In addition, the “potency in inducing β-catenin degradation” value in the test on β-catenin (HEK293 with β-catenin and RXRα, FIG. 4A) is recorded as “high potency”. For the same compound, the “time at which beginning of β-catenin degradation was observed” value in the test on β-catenin (RBC cells, 0.1 μM) is 6 h. Also, in the test on β-catenin (transiently transfected HEK293 and stable line RmBC (ΔNβ-catenin and RXRα), 0.1 μM), the “degradation of ΔNβ-catenin protein” value was “degradation of αNβ-catenin was observed”. In addition, in the test with β-catenin mRNA, the “β-catenin mRNA level” value is reported as “no effects”.
